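Compound exposure: 48 hours, 5 concentrations, 96-well plates. TGI marks complete inhibition of growth.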
Columns and labels:
Assay in all cases: NCI-60 cell line screen, 48 h
U251 CNS = test system: U251 CNS
M14 melanoma = test system: M14 melanoma
HCT-15 colon = test system: HCT-15 colon
MOLT-4 leukemia = test system: MOLT-4 leukemia
XF 498 CNS = test system: XF 498 CNS
SN12C renal = test system: SN12C renal
M19-MEL melanoma = test system: M19-MEL melanoma
HOP-92 NSCLC = test system: HOP-92 NSCLC
SW-620 colon = test system: SW-620 colon
SR leukemia = test system: SR leukemia
MALME-3M melanoma = test system: MALME-3M melanoma
TK-10 renal = test system: TK-10 renal
DLD-1 colon = test system: DLD-1 colon
HCC-2998 colon = test system: HCC-2998 colon
SK-MEL-28 melanoma = test system: SK-MEL-28 melanoma
SF-268 CNS = test system: SF-268 CNS
COLO 205 colon = test system: COLO 205 colon
ACHN renal = test system: ACHN renal
HL-60(TB) leukemia = test system: HL-60(TB) leukemia
OVCAR-4 ovarian = test system: OVCAR-4 ovarian
SNB-19 CNS = test system: SNB-19 CNS
UACC-62 melanoma = test system: UACC-62 melanoma
HT29 colon = test system: HT29 colon
SK-MEL-2 melanoma = test system: SK-MEL-2 melanoma
NCI-H23 lung = test system: NCI-H23 lung
786-0 renal = test system: 786-0 renal
OVCAR-8 ovarian = test system: OVCAR-8 ovarian
UO-31 renal = test system: UO-31 renal
A498 renal = test system: A498 renal
NCI-H460 lung = test system: NCI-H460 lung
OVCAR-3 ovarian = test system: OVCAR-3 ovarian
SNB-75 CNS = test system: SNB-75 CNS
IGROV1 ovarian = test system: IGROV1 ovarian
DMS 114 small cell lung = test system: DMS 114 small cell lung
K-562 leukemia = test system: K-562 leukemia
HCT-116 colon = test system: HCT-116 colon
A549 NSCLC = test system: A549 NSCLC
UACC-257 melanoma = test system: UACC-257 melanoma
CAKI-1 renal = test system: CAKI-1 renal
SF-295 CNS = test system: SF-295 CNS
CCRF-CEM leukemia = test system: CCRF-CEM leukemia
RPMI-8226 leukemia = test system: RPMI-8226 leukemia
SK-OV-3 ovarian = test system: SK-OV-3 ovarian
LXFL 529 NSCLC = test system: LXFL 529 NSCLC
OVCAR-5 ovarian = test system: OVCAR-5 ovarian
KM20L2 colon = test system: KM20L2 colon
SK-MEL-5 melanoma = test system: SK-MEL-5 melanoma
NCI-H522 lung = test system: NCI-H522 lung
KM12 colon = test system: KM12 colon
NCI-H226 lung = test system: NCI-H226 lung
SNB-78 CNS = test system: SNB-78 CNS
HOP-62 NSCLC = test system: HOP-62 NSCLC
EKVX NSCLC = test system: EKVX NSCLC
RXF 393 renal = test system: RXF 393 renal
DMS 273 small cell lung = test system: DMS 273 small cell lung
LOX IMVI melanoma = test system: LOX IMVI melanoma
SF-539 CNS = test system: SF-539 CNS

CC(C)c1ccc(O)c(Cc2cc(C(C)C)cc(Cc3cc(C(C)C)ccc3O)c2O)c1
TGI (U251 CNS): 3.17 µM
TGI (M14 melanoma): 3.23 µM
TGI (HCT-15 colon): 3.24 µM
TGI (MOLT-4 leukemia): 4.68 µM
TGI (XF 498 CNS): 2.73 µM
TGI (SN12C renal): 3.16 µM
TGI (M19-MEL melanoma): 2.99 µM
TGI (HOP-92 NSCLC): 3.33 µM
TGI (SW-620 colon): 3.09 µM
TGI (SR leukemia): 4.45 µM
TGI (MALME-3M melanoma): 2.82 µM
TGI (TK-10 renal): 4.72 µM
TGI (DLD-1 colon): 4.15 µM
TGI (HCC-2998 colon): 3.2 µM
TGI (SK-MEL-28 melanoma): 3.2 µM
TGI (SF-268 CNS): 4.01 µM
TGI (COLO 205 colon): 12.3 µM
TGI (ACHN renal): 10.8 µM
TGI (HL-60(TB) leukemia): 4.36 µM
TGI (OVCAR-4 ovarian): 2.68 µM
TGI (SNB-19 CNS): 3.12 µM
TGI (UACC-62 melanoma): 8.48 µM
TGI (HT29 colon): 4.28 µM
TGI (SK-MEL-2 melanoma): 3.06 µM
TGI (NCI-H23 lung): 3.15 µM
TGI (786-0 renal): 3.08 µM
TGI (OVCAR-8 ovarian): 4.18 µM
TGI (UO-31 renal): 3.04 µM
TGI (A498 renal): 2.82 µM
TGI (NCI-H460 lung): 3.45 µM
TGI (OVCAR-3 ovarian): 3.03 µM
TGI (SNB-75 CNS): 5.03 µM
TGI (IGROV1 ovarian): 6.54 µM
TGI (DMS 114 small cell lung): 3.03 µM
TGI (K-562 leukemia): 4.78 µM
TGI (HCT-116 colon): 3.19 µM
TGI (A549 NSCLC): 3.96 µM
TGI (UACC-257 melanoma): 3.41 µM
TGI (CAKI-1 renal): 2.91 µM
TGI (SF-295 CNS): 3.3 µM
TGI (CCRF-CEM leukemia): 6.91 µM
TGI (RPMI-8226 leukemia): 4.75 µM
TGI (SK-OV-3 ovarian): 3.05 µM
TGI (LXFL 529 NSCLC): 2.81 µM
TGI (OVCAR-5 ovarian): 3.13 µM
TGI (KM20L2 colon): 5.55 µM
TGI (SK-MEL-5 melanoma): 3.15 µM
TGI (NCI-H522 lung): 2.92 µM
TGI (KM12 colon): 3.74 µM
TGI (NCI-H226 lung): 2.93 µM
TGI (SNB-78 CNS): 4.54 µM
TGI (HOP-62 NSCLC): 3.26 µM
TGI (EKVX NSCLC): 8.95 µM

Cc1cc(N(CCC#N)CCC#N)ccc1/C=C(\NC(=O)/C=C/c1ccccc1)C(=O)Nc1ccccc1Cl
TGI (U251 CNS): > 100 µM
TGI (M14 melanoma): > 100 µM
TGI (HCT-15 colon): > 100 µM
TGI (MOLT-4 leukemia): > 100 µM
TGI (RXF 393 renal): > 100 µM
TGI (SN12C renal): > 100 µM
TGI (M19-MEL melanoma): > 100 µM
TGI (HOP-92 NSCLC): 94.5 µM
TGI (SW-620 colon): > 100 µM
TGI (MALME-3M melanoma): > 100 µM
TGI (DLD-1 colon): > 100 µM
TGI (HCC-2998 colon): > 100 µM
TGI (SK-MEL-28 melanoma): > 100 µM
TGI (SF-268 CNS): > 100 µM
TGI (COLO 205 colon): > 100 µM
TGI (ACHN renal): > 100 µM
TGI (HL-60(TB) leukemia): > 100 µM
TGI (OVCAR-4 ovarian): > 100 µM
TGI (SNB-19 CNS): > 100 µM
TGI (DMS 273 small cell lung): > 100 µM
TGI (UACC-62 melanoma): > 100 µM
TGI (HT29 colon): > 100 µM
TGI (SK-MEL-2 melanoma): > 100 µM
TGI (NCI-H23 lung): > 100 µM
TGI (786-0 renal): > 100 µM
TGI (OVCAR-8 ovarian): > 100 µM
TGI (UO-31 renal): > 100 µM
TGI (A498 renal): > 100 µM
TGI (NCI-H460 lung): > 100 µM
TGI (OVCAR-3 ovarian): > 100 µM
TGI (IGROV1 ovarian): > 100 µM
TGI (DMS 114 small cell lung): > 100 µM
TGI (K-562 leukemia): > 100 µM
TGI (HCT-116 colon): > 100 µM
TGI (A549 NSCLC): > 100 µM
TGI (UACC-257 melanoma): > 100 µM
TGI (CAKI-1 renal): > 100 µM
TGI (SF-295 CNS): > 100 µM
TGI (CCRF-CEM leukemia): > 100 µM
TGI (RPMI-8226 leukemia): > 100 µM
TGI (LXFL 529 NSCLC): > 100 µM
TGI (OVCAR-5 ovarian): > 100 µM
TGI (KM20L2 colon): > 100 µM
TGI (SK-MEL-5 melanoma): > 100 µM
TGI (LOX IMVI melanoma): > 100 µM
TGI (KM12 colon): > 100 µM
TGI (NCI-H226 lung): > 100 µM
TGI (SF-539 CNS): > 100 µM
TGI (SNB-78 CNS): > 100 µM
TGI (EKVX NSCLC): > 100 µM
